Assay results reported in patent publication US20070167400A1, “Chitosan oligosaccharides and uses thereof” (priority 2001, published 2007).

Legend:
[1] = tested on: prostaglandin E2 (PGE2) release by human keratinocytes; experiment: PGE2 release by human keratinocytes (ELISA), unstimulated, UVB or PMA stimulated; assay type: cell-based
Method: The objectives of the present study are to evaluate the anti-inflammatory effects of two chitosan oligosaccharides (product […] and product […]) according to the present invention, and, more particularly on prostaglandin E2 (PGE2) and IL-1β release by human keratinocytes under a UVB irradiation. […] Other plates were kept in the dark. […] After thawing and centrifugation of the medium, the content in PGE2 was measured in ELISA with a R&D Systems kit (DE0100), according to the recommended protocol of the supplier. The IL1β content was measured in ELISA with a Immunotech kit (1042), according to the recommended protocol of the supplier. The raw data were transformed and treated by the software PRISM® (Graph Pad Software). The intergroup comparisons were realized by analysis of variance (ANOVA), with the multiple comparison test […].

[2] = tested on: IL-1β release by human keratinocytes; experiment: IL-1β release by human keratinocytes (ELISA), unstimulated, UVB or PMA stimulated; assay type: cell-based; settings: dexamethasone 0.1 μM
Method: • Reference 1: (PGE2 induction): Indomethacin (Sigma 17378), tested at 1 μM (final) • Reference 2: (IL1β induction): Dexamethazone (Sigma D1756), tested at 0.1 μM (final) Treatments and Assays
Other plates were kept in the dark.
After thawing and centrifugation of the medium, the content in PGE2 was measured in ELISA with a R&D Systems kit (DE0100), according to the recommended protocol of the supplier. The IL1β content was measured in ELISA with a Immunotech kit (1042), according to the recommended protocol of the supplier.
The raw data were transformed and treated by the software PRISM® (Graph Pad Software). The intergroup comparisons were realized by analysis of variance (ANOVA), with the multiple comparison test DUNNETT.

[3] = tested on: C57BL/6 mice spleen lymphocytes; experiment: Stimulation of spleen lymphocytes by supernatants of treated peritoneal macrophages (MTS/PMS); assay type: cell-based
Method: FIG. 1 is a graphic illustrating the levels of stimulation of the C57BL/6 mice spleen lymphocytes incubated in vitro with macrophage supernatants treated with various concentrations of chitosan oligomers and glucosamine in (A) with and without the presence of peptidoglycan (B), as measured by the activity of the mitochondrial dehydrogenase on formazan salts (MTS/PMS) after 72 hrs of incubation (n=3).
The first experiment consisted in verifying if Product W was able to induce an […] effect. With this in mind, various concentrations of Product W (10 to 160 μg/ml) were incubated with peritoneal macrophages during a 24 hour period and the immunostimulating properties of the supernatants were measured on C57BL/6 mice spleen lymphocytes. The metabolic activity of spleen lymphocytes was measured by the level of Formazan salts transformation (mitochondrial dehydrogenase: MTS/PMS). As control, the dimer of glucosamine (product A), the trimer of glucosamine (product B) and a mixture of dimer-trimer in a ratio of 40:60 (mixture AB) was also studied and the results compared with those induced by glucosamine (product D). Positive controls of pro-inflammatory substances were added, such as lipopolysaccharides of E. coli (LPS) and peptidoglycan of S. Aureus (PEP).
In a second experiment, the macrophages were stimulated by peptidoglycan, (that has a stronger activation on the inflammatory response than LPS), and the capacity of products A, B, AB and W to decrease the stimulation of the lymphocytes was evaluated. […] The reduction induced by Product W, though slight, seems stronger than that induced by glucosamine (product D).

[4] = tested on: IL-6 production in mice macrophages C57BL/6; experiment: IL-6 production in macrophages (ELISA); assay type: cell-based, C57BL/6 mice; settings: non-activated macrophages
Method: FIG. 3 is a graphic illustrating the levels of IL-6 production in mice macrophages C57BL/6 treated in vitro with various concentrations of chitosan oligomers and glucosamine (A) with and without the presence of peptidoglycan (B), as measured by an ELISA test (n=3). […] LPS and PEP were added as positive controls. Non-activated macrophages were treated with products A, B and W and the IL-6 production was compared with the effects of glucosamine (product D). LPS and PEP were added as positive controls.

[5] = tested on: TNF-α production in C57BL/6 mice macrophages; experiment: TNF-α production in macrophages (ELISA); assay type: cell-based; settings: macrophages activated by PEP
Method: LPS and PEP were added as positive controls. The first cytokine studied was tumor necrosis factor (TNF-α) which is the first cytokine produced and induces the production of the other pro-inflammatory cytokines.

[6] = tested on: IL-10 production in mice macrophages C57BL/6; experiment: IL-10 production in macrophages (ELISA); assay type: cell-based, C57BL/6 mice
Method: LPS and PEP were added as positive controls. We then verified the IL-10 production levels, a very powerful anti-inflammatory cytokine. Peritoneal macrophages are normally good producers of IL-10 since a normal intestinal system requires a high immunological tolerance to operate correctly. Non-activated macrophages were incubated with the various products, as well as LPS and PEP as positive controls, during 24 hours.

[7] = no stimulation, indomethacin 1 μM
[8] = supernatants of non-activated macrophages, 10 to 160 μg/ml, 24 hour

COc1ccc2c(c1)c(CC(=O)O)c(C)n2C(=O)c1ccc(Cl)cc1 [Indomethacin]
effect on PGE2 release induced by PMA (in words) ([1]; PMA stimulation): totally blocked the PGE2 production/release
PGE2 ([1]; PMA stimulation 1 μg/ml, indomethacin 1 μM): 10 pg/mL
PGE2 % (of control) ([1]; PMA stimulation, indomethacin 1 μM): 0%
effect on PGE2 release (in words) ([1]; UVB stimulation): significantly reduced the PGE2 release
PGE2 ([1]; UVB stimulation 250 mJ/cm2, indomethacin 1 μM): 7.3 pg/mL
PGE2 % (of control) ([1]; UVB stimulation, indomethacin 1 μM): 22%
PGE2 [1, 7]: 0.9 pg/mL
PGE2 % (of control) [1, 7]: 8%
effect on basal PGE2 production/release (in words) [1, 7]: apparently totally blocked the production/release of this basal level

C[C@@H]1C[C@H]2[C@@H]3CCC4=CC(=O)C=C[C@]4(C)[C@@]3(F)[C@@H](O)C[C@]2(C)[C@@]1(O)C(=O)CO [dexamethasone, Dexamethazone]
IL1β ([2]; PMA stimulation 1 μg/ml): 0.2 pg/mL
IL1β % (of control) ([2]; PMA stimulation): 5%
IL-1β % (of control) ([2]; no stimulation): 8%

N[C@H]1[C@H](O[C@H]2[C@H](O)[C@@H](N)[C@H](O[C@H]3[C@H](O)[C@@H](N)C(O)O[C@@H]3CO)O[C@@H]2CO)O[C@H](CO)[C@@H](O)[C@@H]1O (stereo partly drawn) [Product B]
effect on lymphocyte stimulation induced by PEP (in words), FIG. 1B ([3]; macrophages stimulated by peptidoglycan (PEP)): with the weakest concentration tested was able to decrease this stimulation
effect on lymphocyte activity (in words), FIG. 1A [3, 8]: slight stimulation with the smallest doses only
effect on IL-6 production (in words), FIG. 3A [4]: increase

N[C@H]1C(O)O[C@H](CO)[C@@H](O)[C@@H]1O (stereo partly drawn) [glucosamine]
effect on lymphocyte activity (in words), FIG. 1A [3, 8]: slightly increased the lymphocyte activity
effect on TNF-α (in words), FIG. 2B ([5]; 10 μg/ml): increased the level of TNF-α
effect on TNF-α (in words), FIG. 2B ([5]; highest concentration): induced a reduction
effect on IL-6 production (in words), FIG. 3A [4]: did not modify this cytokine
effect on IL-10 production (in words), FIG. 4B ([6]; macrophages activated by PEP): no detectable effect
effect on IL-10 production (in words), FIG. 4A ([6]; non-activated macrophages, 24 hours): slightly increased the IL-10 production

N[C@H]1[C@H](O[C@H]2[C@H](O)[C@@H](N)C(O)O[C@@H]2CO)O[C@H](CO)[C@@H](O)[C@@H]1O (stereo partly drawn) [Product A]
effect on lymphocyte activity (in words), FIG. 1A ([3]; non-activated macrophages, 80 μg/ml): slight increase
effect on lymphocyte activity (in words), FIG. 1A ([3]; non-activated macrophages, 10 μ/ml): slight decrease
effect on IL-6 production (in words), FIG. 3A [4]: slightly decrease
